{
  "source": "patent US20250009740A1",
  "about": "“METHODS AND COMPOSITIONS FOR TARGETING ALTERNATIVE METABOLISM ALONG WITH FLT3 INHIBITOR-MEDIATED ANTILEUKEMIC ACTIONS” (Ohio State Innovation Foundation, priority 2021, published 2025)",
  "key": {"MOLM-13 cells [1]": {"test_system": "MOLM-13 cells", "experiment": "Pairwise dose combination synergy, MTS cell viability, HSA analysis", "type": "cell-based, human", "procedure": "(§1) For dinaciclib, cells were treated for 2 hours with the drug before it was washed off and all other drugs were incubated with cells for 48-96 hours. Cell viability was measured with MTS. HSA analysis was used to determine regions of synergy. […] MOLM-13 and MV4-11 cells were treated with vehicle, 50 nM or 100 nM brequinar in combination with vehicle, 4 nM or 8 nM gilteritinib for 96 hours before cells were fixed and permeabilized for intracellular BV421-Ki67 staining and flow cytometry analysis. […] Primary cells were treated with vehicle, single agents or drug combination before cell apoptosis was measured with Annexin V/PI staining. Results are shown as mean±SEM of 3 biological replicates. […] Bone marrow cells from 3 FLT3-ITD patients, 2 FLT3-WT patients and 2 healthy donors were seeded into Methocult at 50,000 cells per condition with vehicle, single agents or drug combinations. The numbers of colonies were quantified for 1st and 2nd platings after 14 days post seeding. Results are shown as means of 2 biological replicates. * p<0.05 in comparison with EPZ015666, dinaciclib or brequinar alone.\n(§2) Next, it was determined whether pharmacologic inhibition of CDK9, DHODH or PRMT5, using commercially available inhibitors (brequinar for DHODH, dinaciclib for CDK1/2/5/9, and EPZ015666 for PRMT5) is synergistic with gilteritinib in AML cells."}, "MV4-11 cells": {"test_system": "MV4-11 cells", "experiment": "Pairwise dose combination synergy, MTS cell viability, HSA analysis", "type": "cell-based", "procedure": "as §1, §2"}, "MOLM-13 luciferase cells": {"test_system": "MOLM-13 luciferase cells", "experiment": "MOLM-13-Luc+ FLT3-ITD AML xenograft in NCG mice", "type": "in vivo, mouse", "settings": "10 mg/kg dinaciclib weekly i.p., 30 mg/kg gilteritinib daily oral gavage, or both; vehicle 24 days", "protocol": "(A) NCG mice were engrafted with MOLM-13 cells expressing luciferase and treated with vehicle, 10 mg/kg dinaciclib weekly, 30 mg/kg gilteritinib daily, or dinaciclib/gilteritinib combination.\nAnimal Studies All animal studies were carried out under protocols approved by The Ohio State University Institutional Animal Care and Use Committee (IACUC). 1×10^5 MOLM-13 luciferase cells were injected via tail vein into male NOD-Prkdc^em26Cd52Il2rg^em26Cd22/NjuCrl (NCG) from the Charles River Laboratory. On day 4 post-engraftment, mice were randomized to treatment arms. Mice received the following drugs and doses: weekly intraperitoneal injections of 10 mg/kg dinaciclib (MedChemExpress HY-10492) in 20% cyclodextrin (CTD THPB-P) diluted just prior to injection, daily oral gavage of 30 mg/kg gilteritinib (MedChemExpress HY-1432) in 6% drug w/w gelucire 44/14 (Gattefosse, France) aliquoted and mixed with drug weekly, oral gavage of vehicle control (gelucire 44/14), or combination therapy at single-agent regimens."}, "[2]": {"test_system": "shRNA-stable MOLM-13 cells", "experiment": "Annexin V/PI flow cytometry of shRNA-stable cells treated with gilteritinib", "type": "cell-based, human", "settings": "8 nM gilteritinib, 120 hours", "procedure": "(A-D) Knockdown efficiency of selected targets by shRNA as detected by qPCR and Western blotting; GAPDH or β-actin serves as loading control. N=2. *p<0.05; **p<0.01; (E-H) Dose-response curves of shCDK9, shDHODH, shPRMT5 and shCDK7-stable MOLM-13 cells in response to 120-hour gilteritinib treatment. Cell viability was measured with MTS. Results are shown as mean±SEM of 4 technical replicates and 3-4 biological replicates. ***p-value<0.0001; ns=not significant. I) Knockdown of CDK9, PRMT5 or DHODH but not CDK7 with shRNA increases the frequency of apoptotic AML cell lines with gilteritinib. Parental, scrambled or gene-targeting shRNA-stable MOLM-13 cells were treated with 8 nM gileritinib for 120 hours and stained with Annexin V/PI for flow cytometry analysis. Data are shown as mean±SEM of % population from triplicates.\nDHODH, CDK9 and PRMT5 genes were selected for validation, in light of their strong synergistic interactions with gilteritinib and availability of clinical grade inhibitors. MOLM-13 cells were transduced with shRNA targeting each of these genes and knockdown efficiencies were confirmed via qPCR and Western Blotting (FIG. 2A-D). Scrambled or gene-targeting shRNA transduced cells were treated with gilteritinib (2-25 nM dose range) for 120 hours followed by MTS analysis to quantify cell proliferation."}, "MOLM-13 cells [3]": {"test_system": "MOLM-13 cells", "experiment": "Proliferation assay of FLT3 inhibitor with telaglenastat, HSA analysis", "type": "cell-based, human", "settings": "MOLM-13, 48 hours", "procedure": "Proliferation assay of a range of doses of midostaurin or gilteritinib with telaglenstat on MOLM-13 cells treated for 48 hours. Highest single agent (HSA) analysis was used to determine regions of synergy.\nFLT3-ITD inhibition reduces glutaminolysis by blocking glutamine influx through SLC1A5, the primary glutamine transporter^15,16. SLC38A2 can serve as a redundant glutamine transporter to compensate the deficiency of SLC1A5^17."}, "[4]": {"settings": "gilteritinib paired with dinaciclib or EPZ015666, dinaciclib 2 hours then washed off, others 48-96 hours"}, "[5]": {"settings": "gilteritinib paired with dinaciclib or EPZ015666"}},
  "data": [
    {"smiles": "O=C(NC[C@H](O)CN1CCc2ccccc2C1)c1cc(NC2COC2)ncn1", "note": "[EPZ015666]", "values": [
      {"measurement": "synergy range (drug concentration)", "setting": "MOLM-13 cells [1]; in combination with 2-10 nM gilteritinib", "result": "1000 to 100000", "unit": "nM"},
      {"measurement": "maximum synergy (drug concentration)", "setting": "MV4-11 cells; in combination with 0.1-8 nM gilteritinib", "result": "3000 to 100000", "unit": "nM"}
    ]},
    {"smiles": "CCc1cnn2c(NCc3ccc[n+]([O-])c3)cc(N3CCCC[C@H]3CCO)nc12", "note": "[dinaciclib]", "values": [
      {"measurement": "synergy range (drug concentration)", "setting": "MOLM-13 cells [1]; [4]", "result": "0.0075 to 0.01", "unit": "nM"},
      {"measurement": "maximum synergy (drug concentration)", "setting": "MV4-11 cells; [5]", "result": "0.0075 to 0.01", "unit": "nM"},
      {"measurement": "mean survival time", "setting": "MOLM-13 luciferase cells", "result": 27.5, "unit": "days"}
    ]},
    {"smiles": "CCc1nc(C(N)=O)c(Nc2ccc(N3CCC(N4CCN(C)CC4)CC3)c(OC)c2)nc1NC1CCOCC1", "note": "[gilteritinib]", "values": [
      {"measurement": "synergy range (drug concentration)", "setting": "MOLM-13 cells [1]; [4]", "result": "2 to 10", "unit": "nM"},
      {"measurement": "maximum synergy (drug concentration)", "setting": "MV4-11 cells; [5]", "result": "0.1 to 8", "unit": "nM"},
      {"measurement": "increase of necroptotic/apoptotic cells vs scrambled control", "setting": "[2]; knockdown of CDK9", "result": 9, "unit": "fold"},
      {"measurement": "increase of necroptotic/apoptotic cells vs scrambled control", "setting": "[2]; knockdown of DHODH", "result": 5, "unit": "fold"},
      {"measurement": "increase of necroptotic/apoptotic cells vs scrambled control", "setting": "[2]; knockdown of PRMT5", "result": 2.6, "unit": "fold"},
      {"measurement": "mean survival time", "setting": "MOLM-13 luciferase cells", "result": 39, "unit": "days"}
    ]},
    {"smiles": "O=C(Cc1cccc(OC(F)(F)F)c1)Nc1ccc(CCCCc2nnc(NC(=O)Cc3ccccn3)s2)nn1", "note": "[telaglenastat]", "values": [
      {"measurement": "cytotoxic effect in combination with gilteritinib", "setting": "MOLM-13 cells [3]", "result": "synergistic cytotoxic effect"},
      {"measurement": "cytotoxic effect in combination with midostaurin", "setting": "MOLM-13 cells [3]", "result": "synergistic cytotoxic effect"}
    ]}
  ]
}
